# Reference: patent US6638938B1, “Method for preventing tissue injury from hypoxia” (Cell Therapeutics, Inc., priority 1993, dated 2003)
# Experiments:
# [1] = tested on: LPAAT (lysophosphatidic acyltransferase); test: inhibition of LPAAT activity; format: biochemical; details: LPAAT activated by IL-1
# human neutrophils [2] = test: neutrophil chemotaxis in Boyden chambers to zymosan activated serum; format: cell-based
# From the text: Human recombinant interleukin-1α (IL-1) was obtained from Hoffmann-LaRoche, Inc. (Nutley, N.J.), frozen inaliquots and thawed daily for use. Ketamine hydrochloride was obtained from Parke-Davis (Morris Plains, N.J.), xylazine from Haver (New York, N.J.), ^125I labeled bovine serum albumin (BSA) from ICN Radiochemicals (Irvine, Calif.), and heparin sodium from Elkins-Sinn, Inc. (Cherry Hill, N.J.). All other reagents were purchased from Sigma Chemical Co. (St. Louis, Mo.). Neutrophils were purified from human blood by well described methods. Venous blood was anticoagulated with heparin and the cellular elements were separated from platelet-rich plasma by centrifugation. Cell pellets were resuspended in platelet-poor plasma and diluted 1:4 with 6% dextran (Pharmacia Fine Chemicals, Piscataway, N.J.) in saline. Red cells were separated from leukocytes by sedimentation. Leukocyte-rich supernatants were then aspirated, underlain with Ficoll-Hypaque (Pharmacia Fine Chemicals), and centrifuged at 275×g to separate neutrophils and monocytes. […]
# Each sample was run in triplicate. Unstimulated locomotion was measured using control neutrophils in Hank's Balanced Salt Solution (HBSS) in the top chamber and HBSS in the bottom chamber. Stimulated locomotion was measured using twice-washed neutrophils in HBSS in the top chamber with and without Lisofylline and zymosan-activated serum (ZAS) in the bottom chamber. […] Indices of unstimulated or stimulated locomotion were expressed as the number of neutrophils migrating through the filter in 5 random, high-power objective fields (HPF).
# Neutrophil chemotactic activity was determined by Boyden chamber assay and quantitated as the number of migrating PMN/5HPF using zymosan-activated serum (ZAS) as the chemoattractant (Repine et al., J. Reticuloendo. Soc. 24:217, 1978). Neutrophil adherence was assessed by quantitating the percentage of neutrophils adhering to nylon fibers following addition of phorbol myristate acetate (PMA 10-^6M, Sigma) (Rasp et al., J. Reticuloendo. Soc. 25:101, 1979). […]
# human neutrophils [3] = test: neutrophil superoxide anion production (cytochrome c reduction); format: cell-based
# From the text: Human recombinant interleukin-1α (IL-1) was obtained from Hoffmann-LaRoche, Inc. (Nutley, N.J.), frozen inaliquots and thawed daily for use. Ketamine hydrochloride was obtained from Parke-Davis (Morris Plains, N.J.), xylazine from Haver (New York, N.J.), ^125I labeled bovine serum albumin (BSA) from ICN Radiochemicals (Irvine, Calif.), and heparin sodium from Elkins-Sinn, Inc. (Cherry Hill, N.J.). All other reagents were purchased from Sigma Chemical Co. (St. Louis, Mo.). Neutrophils were purified from human blood by well described methods. Venous blood was anticoagulated with heparin and the cellular elements were separated from platelet-rich plasma by centrifugation. Cell pellets were resuspended in platelet-poor plasma and diluted 1:4 with 6% dextran (Pharmacia Fine Chemicals, Piscataway, N.J.) in saline. Red cells were separated from leukocytes by sedimentation. Leukocyte-rich supernatants were then aspirated, underlain with Ficoll-Hypaque (Pharmacia Fine Chemicals), and centrifuged at 275×g to separate neutrophils and monocytes. Sedimented neutrophils were resuspended in Hank's balanced salt solution (HBSS). These preparations contained 94 to 96% neutrophils and 4 to 6% monocytes. All values were compared by analysis of variance and corrected by post hoc Student t tests for differences between groups. A p value of <0.05 was considered significant.
# Release of superoxide anion by neutrophils was determined spectrophotometrically by measuring superoxide dismutase (SOD) inhibitable reduction of horse heart ferricytochrome C (Sigma Chemical Co., St. Louis, Mo.). Briefly, neutrophils (2×10^6) were placed in tubes containing HBSS (sufficient quantity to 2.0 ml), pooled human serum (1%), and SOD (2.98 mg) with and without Lisofylline. These mixtures were divided in half, and one part was incubated at 37° C. and one part at 4° C. After incubation, reaction mixtures were kept at 4° C. and centrifuged at 800×g for 15 min. Absorbance for paired supernatants was measured at 550 nm using a spectrophotometer (Model 35; Beckman Instruments, Inc., Fullerton, Calif.), averaged, and expressed at nanomoles of SOD-inhibitable cytochrome C reduced/20 min. In some experiments, neutrophils were incubated with PMA.
# Neutrophil chemotactic activity was determined by Boyden chamber assay and quantitated as the number of migrating PMN/5HPF using zymosan-activated serum (ZAS) as the chemoattractant (Repine et al., J. Reticuloendo. Soc. 24:217, 1978). Neutrophil adherence was assessed by quantitating the percentage of neutrophils adhering to nylon fibers following addition of phorbol myristate acetate (PMA 10-^6M, Sigma) (Rasp et al., J. Reticuloendo. Soc. 25:101, 1979). Neutrophil superoxide production was determined by quantitating superoxide dismutase inhibitable reduction of cytochrome c in response to PMA (10^−6 M) (Berger et al., J. Infectious Dis. 149:413, 1984).
# isolated rat lungs = test: human neutrophil perfused isolated rat lungs given IL-8 intratracheally
# Procedure: After Sprague-Dawley adult male rats (350±50 g) were anesthetized with pentobarbital (60 mg/kg i.p.), a tracheotomy cannula was placed and secured with 2-O ligature. Lungs were ventilated with a tidal volume of 3 cc at a rate of 60/min. with a gas mixture containing 5% CO2 21% O2 and 74% N2. Following midline thoracotomy, a 4-O ligature was loosely placed around the root of the pulmonary outflow tract. Heparin (200 units) was injected into the right ventricle and allowed to recirculate. A rigid cannula was placed into the right ventricle, threaded into the pulmonary outflow tract, and secured with the ligature. The left ventricle was incised and a drainage cannula was inserted and secured with a 2-O ligature. Lungs and heart were excised, placed in an isolated lung chamber, and ventilated with 2.5 cm of positive end-expiratory pressure. Lungs were perfused free of blood using Earle's Balanced Salt Solution (Sigma) containing calcium chloride (0.265 g/L), magnesium sulfate (0.09767 g/L), potassium chloride (0.4 g/L), sodium chloride (6.8 g/L), sodium phosphate monobasic (0. 122 g/L) and D-glucose (1 g/L) to which was added sodium bicarbonate (2.2 g/L.) and Ficoll-70 (Sigma)(40 g/L), and the final pH adjusted to 7.40. […] Pulmonary artery pressures were continuously monitored with a transducer and weight increases were monitored with a force transducer. […]
# isolated rat kidneys = test: ischemic isolated rat kidney reperfused with human neutrophils; details: Ischemia + neutrophils + Lisofylline
# From the text: This example illustrates an in vivo kidney model of hypoxic tissue injury using Lisofylline. Isolated rat kidneys were rendered ischemic and reperfused with human neutrophils (prepared as in example 4 above) according to the procedure in Linas et al;, Am. J. Physiol. 24:728-735, 1988. Lisofylline decreased injury in this ischemic isolated rat kidney model according to the data presented in Table 8 below wherein GFR refers to glomerular filtration rate and TNa refers to tubular sodium reabsorption.
# PA and DAG generation = details: cited from earlier work
structure (smiles),measurement,setting,value
"C[C@@H](O)CCCCn1c(=O)c2c(ncn2C)n(C)c1=O [Lisofylline, 1-R-(5-hydroxyhexyl)-3,7-dimethylxanthine]",mode of LPAAT inhibition,[1],direct inactivator and competitive inhibitor
same,Neutrophil Chemotaxis in Boyden Chambers in vitro,human neutrophils [2]; Neutrophils + ZAS + Lisofylline 1 μM,15.0 (2)δ PMN/5HPF
same,Neutrophil Chemotaxis in Boyden Chambers in vitro,human neutrophils [2]; Neutrophils + ZAS + Lisofylline 50 μM,11.1 (2)δ PMN/5HPF
same,stimulated human neutrophil chemotaxis,"human neutrophils [2]; ZAS as chemoattractant, in vitro",reduced
same,Neutrophil Superoxide Production in vitro,human neutrophils [3]; Neutrophils + PMA + Lisofylline 0.7 μM,9.2 ± 7.8 (4) μM cyto c reduced/30 min
same,Neutrophil Superoxide Production in vitro,human neutrophils [3]; Neutrophils + PMA + Lisofylline 7 μM,82.3 ± 5.2 (4) μM cyto c reduced/30 min
same,Neutrophil Superoxide Production in vitro,human neutrophils [3]; Neutrophils + PMA + Lisofylline 70 μM,80.6 ± 5.2 (4) μM cyto c reduced/30 min
same,Neutrophil Superoxide Production in vitro,human neutrophils [3]; Neutrophils + PMA + Lisofylline 700 μM,92.0 ± 1.1 (4) μM cyto c reduced/30 min
same,neutrophil superoxide anion generation,"human neutrophils [3]; PMA 10^-6 M, in vitro, whether reduced",not
same,Lung Weight Gain,isolated rat lungs; Neutrophils + IL-8 + Lisofylline 1 μM,0.0 ± 0.0 (3)δ g
same,Lung Weight Gain,isolated rat lungs; Neutrophils + IL-8 + Lisofylline 50 μM,0.0 ± 0.0 (4)δ g
same,TNa (tubular sodium reabsorption),"isolated rat kidneys; control 90%, ischemia + neutrophils 40%",78% (n = 6)
same,GFR (glomerular filtration rate),"isolated rat kidneys; control 250, ischemia + neutrophils 113",202 (n = 6)
same,concentrations at which Lisofylline effectively inhibits PA synthesis,PA and DAG generation,10 to 30 µM
